System: cancer cells
Test: antiproliferative activity (anticancer properties)
Type: cell-based
Settings: cell line not stated; cisplatin in the same experiment; read-out: antiproliferative activity indicated by the cell survival half-life factor (IC50)
Description: Three examples of bi-heterometallic compounds which would be obtained from that compound present better activity as shown by their IC50: IC50 Ru-Zn: 9.07±0.27; IC50 Ru-Co: 5.40±0.19; IC50 Ru-Ni: 7.15±0.30 µM. Ru-Zn = [Ru(η^6-C10H14)(Cl2)-µ-dmoPTA-1κP:2κ^2N,N'-ZnCl2]. Ru-Co = [Ru(η^6-C10H14)(Cl2)-µ-dmoPTA-1κP:2κ^2N,N'-CoCl2]. Ru-Ni = [Ru(η^6-C10H14)(Cl2)-µ-dmoPTA-1κP:2κ^2N,N'-NiCl2].

Molecule | IC50
N.N.[Cl][Pt][Cl] [cisplatin, reference compound] | 45.6 ± 8.08 µM
[Ru(η^6-C10H14)(Cl2)(HdmoPTA)](OSO2CF3) | 32.09 ± 0.3 µM
[Ru(η^6-C10H14)(Cl2)-µ-dmoPTA-1κP:2κ^2N,N'-CoCl2] [Ru-Co] | 5.4 ± 0.19 µM
[Ru(η^6-C10H14)(Cl2)-µ-dmoPTA-1κP:2κ^2N,N'-NiCl2] [Ru-Ni] | 7.15 ± 0.3 µM
[Ru(η^6-C10H14)(Cl2)-µ-dmoPTA-1κP:2κ^2N,N'-ZnCl2] [Ru-Zn] | 9.07 ± 0.27 µM

— EP4180043A1, “RUTHENIUM COMPLEXES” (Universidad de Almeria, priority 2020, dated 2022)
